Test results reported in paper doi:10.1101/679118v2 (biorxiv, 2019).

Test system: E. histolytica
Experiment: microbe, parasite or virus in culture
Parameters: species or system Entamoeba histolytica HM-1:IMSS trophozoites
Conditions: Entamoeba histolytica, 24 h, read-out: EC50 E. histolytica

Row | EC50 [µM] | Compound
1 | 200 | COc1cc([C@@H]2c3cc4c(cc3[C@@H](O[C@@H]3O[C@@H]5CO[C@@H](C)O[C@H]5[C@H](O)[C@H]3O)[C@H]3COC(=O)[C@H]23)OCO4)cc(OC)c1O [etoposide]
2 | 15 | C[C@H]([C@H](C)N1CC(=O)NC(=O)C1)N1CC(=O)NC(=O)C1 [ICRF 193]
3 | 80 | COc1cc(NS(C)(=O)=O)ccc1Nc1c2ccccc2nc2ccccc12 [Amsacrine]
4 | 270 | NC1CCN(c2c(F)cc3c(=O)c(C(=O)O)cn(C4CC4)c3c2Cl)C1 (centres unmarked) [Clinafloxacin]
5 | 250 | O=C(O)c1cn(C2CC2)c2cc(N3CCNCC3)c(F)cc2c1=O [ciprofloxacin]
